Read-outs that look alike come from different tables or passages of the source.
Columns and labels:
[1] = tested on: A74 MVC treated week 21 virus (MVC.21); test: Drug susceptibility assay (reverse transcriptase activity) in U87.CD4.CCR5 cells, MVC selected virus MVC.21; type: cell-based, HIV-1
Description: (§1) (A) Virus A74 derived from passage control week 21 (PC.21) and MVC treated week 21 (MVC.21) cultures were used to infect U87.CD4.CCR5 cells in the presence of increasing concentrations of MVC. (B) These viruses were also used to infect U87.CD4.CCR5 cells in the presence of maximal inhibitory concentrations (10 μM) of CCR5 antagonists MVC and TAK-779 and fusion inhibitor enfuvirtide (T20). Reverse transcriptase activity was measured 7 days post infection. Percent infection was calculated relative to the no drug control for each virus. Data shown are means of triplicates with error bars representing standard deviations.
(§2) FIG. 15 illustrates a plot showing sensitivity to attachment inhibitor BMS-806. […] Reverse transcriptase activity was measured five days post infection and percent inhibition calculated based on the no drug condition. Data represents means of triplicates with standard deviations.
(§3) U87.CD4.CCR5 cells were plated in 96-well format (1×10^4 cells/well) for 24 hr. Cells were then treated for 2 hr with 5-fold dilutions of MVC (100 μM to 2×10^−6 μM) and then infected at a multiplicity of infection (MOI) of 0.001 infectious units (IU)/cell. All assays were performed in triplicate. After 24 hr, cells were washed in 1×PBS to remove free virus and media containing the appropriate MVC drug dilutions was added. Viral replication was measured daily by radio-labeled reverse transcriptase assay using a Packard beta counter to quantify counts per minute (cpm). Drug sensitivity curves were generated using non-linear regression curve fitting features of GraphPad Prism 5 software.

[2] = tested on: A74 passage control week 21 virus (PC.21); test: Drug susceptibility assay (reverse transcriptase activity) in U87.CD4.CCR5 cells, passage control virus PC.21; type: cell-based, HIV-1
Description: as §1, §2, §3

[3] = tested on: gp120 chimeric virus clone PC.21.109
Description: as §3
(§4) Gp120 chimeric viruses were cloned into an NL4-3 backbone from passage control and virus passaged in the presence of MVC escalations using the yeast homologous recombination-gap repair technique. From this point forward, the viruses and clones are referred to as […] (passage control) or MVC (maraviroc selected). 21 (number of passages). 1 (clone number) or PC.21.1 or MVC.21.1. The gp120 regions of the PC.1 (starting virus), PC.21 and MVC.21 viruses were PCR amplified using primers F_gp120 5′-[…]-3′ (SEQ ID NO: 1) and B_gp120 5′-[…]-3′ (SEQ ID NO: 2). Briefly, these gp120 PCR products were then co-transformed with a SacI-linearized pREC_NFL_Δgp120/URA3 into Saccharomyces cerevisiae MYA-906 cells (ATCC). Following homologous recombination, plasmids were extracted from the yeast cells and transformed into electrocompetent Escherichia coli Stbl4 cells (Invitrogen). Individual bacterial colonies were grown and plasmids were extracted using Qiagen miniprep kits. Chimeric pREC_NFL_gp120 plasmids were co-transfected into 293T cells (3×10^4 cells/well) along with the complementing plasmid pCMV_cplt using Fugene 6 reagent (Promega, Madison, Wis.) as described. Heterodiploid virus particles containing one copy of the NFL and cplt HIV-1 RNAs represent approximately half of the virus derived from 293T cell transfections and can be propagated on U87.CD4.CCR5 cells to produce replication competent virus with a complete virus genome. Virus stocks of each clone were titered as described above. The DNA sequences obtained in the course of this work were deposited in the GenBank/EMBL/DDBJ databases under the following accession numbers: env(gp120) (JX993942-JX993981).

[4] = tested on: gp120 chimeric virus clone MVC.21.122; details: U87.CD4.CCR5
Description: as §3, §4

[5] = tested on: gp120 chimeric virus clone MVC.21.128
Description: as §3, §4

[6] = tested on: gp120 chimeric virus clone MVC.21.123
Description: as §3, §4

[7] = tested on: gp120 chimeric virus clone PC.1.1
Description: as §3, §4

[8] = tested on: gp120 chimeric virus clone PC.21.111
Description: as §3, §4

[9] = tested on: gp120 chimeric virus clone MVC.21.119
Description: as §3, §4

B6.PC.21 virus = details: U87.CD4.CCR5
Description: as §3
(§5) Reverse transcriptase (RT) activity was monitored in the cell-free supernatant for each weekly passage and inhibitor concentration increased when RT activity reached 2-fold over background.

B6.MVC.21 virus = details: U87.CD4.CCR5
Description: as §3, §5

[10] = tested on: HIV-1 subtype A primary isolate A74; test: Multiple cycle drug sensitivity assay in PBMC, virus A74; type: cell-based
[11] = tested on: HIV-1 subtype B primary isolate B6; details: read-out: mean IC50; U87.CD4.CCR5; virus B6
Description: as §3
(§6) We assessed “intrinsic” susceptibilities of HIV-1 subtype A, B, and C primary isolates to maraviroc. Multiple cycle drug susceptibility assays were performed in U87.CD4.CCR5 cells in the presence of 5-fold decreasing concentrations of MVC starting at 100 μM.

[12] = tested on: HIV-1 subtype C primary isolate C8; details: read-out: mean IC50; U87.CD4.CCR5; virus C8
Description: as §3, §6

[13] = tested on: gp120 chimeric virus clone MVC.21.122.425K
Description: as §3

[14] = tested on: HIV-1 subtype A primary isolate A74; details: U87.CD4.CCR5; virus A74
[15] = tested on: subtype B patient-derived MVC resistant virus R3; details: clone R3; single cycle conditions
Description: (§7) For single replication cycle drug susceptibility assays, U87.CD4.CCR5 cells in 96-well format (1×10^4 cells/well) were pretreated for 2 hours with 10-fold dilutions of MVC (1 μM to 1×10^−7 μM) then infected in triplicate with luciferase encoding psuedovirus. After 48 hours, supernatant was removed and cells were lysed using 50 μL Glo lysis buffer (Promega, Madison, Wis.). Cells were lysed for 20 minutes at room temperature, transferred to white polystyrene 96 well plates, and read with a PerkinElmer VICTOR plate reader using injectors to introduce 50 μL Bright Glo reagent per well (Promega, Madison, Wis.). Luciferase activity was measured as relative light units (RLU).

[16] = tested on: A74.MVC.21.132 psuedovirus
Description: as §7

[17] = tested on: subtype B patient-derived MVC resistant virus R3; details: clone R3; multiple cycle conditions
Description: (§8) For multiple replication cycle drug susceptibility assays, U87.CD4.CCR5 cells were plated as above and pretreated with 5-fold dilutions of MVC (100 μM to 2×10^−6 μM). Cells were infected at an MOI of 0.001 IU/cell with NL4-3/gp120 chimeric virus in quadruplicate. After 24 hours, viral inoculums were removed and replaced with media containing the appropriate MVC dilutions. Reverse transcriptase activity in supernatant was monitored as previously described on days 4 through 7 post infection.

[18] = tested on: A74 MVC treated week 21 virus (MVC.21); test: Multiple cycle drug sensitivity assay in PBMC, virus MVC.21; type: cell-based, HIV-1
Description: (§9) U87.CD4.CCR5 cells were obtained through the AIDS Research and Reference Reagent Program, Division of AIDS, NIAID, NIH. U87.CD4.CCR5 cells were maintained in DMEM supplemented with 10% FBS, 100 μg/mL penicillin/streptomycin, 300 μg/mL G418, and 1 μg/mL puromycin (Invitrogen, Carlsbad, Calif.). 293T cells were cultured in DMEM supplemented with 10% FBS and 100 μg/mL penicillin/streptomycin. Peripheral blood mononuclear cells (PBMCs) were obtained from whole blood extracted from a HIV negative donor by Ficoll-Paque centrifugation. PBMC cultures were stimulated with 1 μg/mL phytohemagglutinin (PHA; Gibco, Carlsbad, Calif.) for 48 hrs in RPMI 1640 medium (Gibco) containing 10% FBS and 100 μg/mL penicillin/streptomycin. Cells were maintained thereafter in RPMI 1640 medium with 10% FBS, 100 μg/mL penicillin/streptomycin, and […] interleukin-2 (IL-2; Gibco).
(§10) All assays were performed in triplicate.
(§11) Therefore, multiple cycle drug sensitivity assays were performed in peripheral blood mononuclear cells (PBMC) isolated from an HIV negative donor with PC.21 and MVC.21.

[19] = tested on: CC1/85 MVC-resistant virus containing the T316 and V323 V3 loop mutations; details: 1 μM MVC; cited from earlier work
[20] = tested on: gp120 chimeric virus clone MVC.21.132 (A74.MVC.21.132)
Description: as §3, §4
as §8, with “After 24 hours, viral inoculums were removed and replaced with media containing the appropriate MVC dilutions.” left out

[21] = tested on: A74 passage control week 21 virus (PC.21); test: Multiple cycle drug sensitivity assay in PBMC, virus PC.21; type: cell-based, HIV-1
Description: as §9, §10, §11

[22] = highest MVC concentrations (4, 20, 100 μM)

COc1ccnc2[nH]cc(C(=O)C(=O)N3CCN(C(=O)c4ccccc4)C[C@H]3C)c12 [BMS-806]
inhibition ([1]; highest concentrations tested (50 and 5 μM), MVC.21): 98%
inhibition ([2]; highest concentrations tested (50 and 5 μM), PC.21): 46%

Cc1ccc(-c2ccc3c(c2)C=C(C(=O)Nc2ccc(C[N+](C)(C)C4CCOCC4)cc2)CCC3)cc1.[Cl-] [TAK-779]
inhibition of virus replication ([1]; 10 μM (IC99 inhibitory concentration), MVC.21): cross resistance
inhibition of virus replication ([2]; 10 μM (IC99 inhibitory concentration), PC.21): completely blocked

Maraviroc [MVC]
IC50 ([1]; virus MVC.21): 216 nM
MPI (maximal percent inhibition) ([1]; virus MVC.21, highest drug concentration tested 100 μM): 81%
sensitivity to MVC inhibition [3]: sensitive
inhibition (RT activity) [3, 22]: 99.9%
IC50 [4]: 0.9 nM
IC50 fold change relative to input gp120 clone PC.1.1 [5]: 40 fold
MPI [5]: > 95%
IC50 ([5]; U87.CD4.CCR5): 37 nM
IC50 fold change relative to input gp120 clone PC.1.1 [6]: 11 fold
MPI [6]: > 95%
sensitivity to MVC inhibition [7]: sensitive
sensitivity to MVC inhibition [8]: sensitive
IC50 fold change relative to input gp120 clone PC.1.1 [9]: 40 fold
MPI [9]: > 95%
IC50 ([9]; U87.CD4.CCR5): 34 nM
inhibition (RT activity) [9, 22]: 97%
IC50 (B6.PC.21 virus; B6 week 21 control culture): 8 nM
MPI (maximal percent inhibition) (B6.PC.21 virus; virus B6.PC.21): 100%
IC50 (B6.MVC.21 virus; B6 week 21 inhibitor treated culture): 14 nM
MPI (maximal percent inhibition) (B6.MVC.21 virus; virus B6.MVC.21): 99%
IC50 [10]: 5 nM
MPI [10]: 100%
IC50 [11]: 2 nM
IC50 [12]: 2 nM
shift in IC50 relative to MVC.21.122 [13]: 36 fold
IC50 ([13]; U87.CD4.CCR5): 33 nM
IC50 [14]: 10 nM
MPI (maximal percent inhibition) [14]: 99%
maximal percent inhibition (MPI) [15]: 56%
resistance in single cycle assay [16]: resistance could not be detected
maximal percent inhibition (MPI) [17]: 61%
IC50 [18]: 300 nM
MPI [18]: 73%
IC50 ([2]; virus PC.21): 1 nM
MPI (maximal percent inhibition) ([2]; virus PC.21): 100%
level of replication in the presence of drug as compared to the absence of drug [19]: 25%
rightward shift in IC50 compared with MVC sensitive clone A74.PC.21.109 ([20]; A74.MVC.21.132, multiple replication cycle conditions): 17 fold
IC50 fold change relative to input gp120 clone PC.1.1 ([20]; clone MVC.21.132): 10 fold
MPI ([20]; clone MVC.21.132): > 95%
IC50 ([20]; clone MVC.21.132, U87.CD4.CCR5): 8.8 nM
IC50 [21]: 5 nM
MPI [21]: 98%
IC50 ([21]; read-out: IC50): 6 nM
